According to patent publication US20110190365A1, “Insecticidal 4-phenyl-1H-pyrazoles” (Bayer Crop Science AG, priority 2008, published 2011):

Assay: log P by HPLC on a reversed-phase column (C18), EEC Directive 79/831 Annex V.A8
Type: physicochemical
Procedure: The stated log P values were determined in accordance with EEC Directive 79/831 Annex V.A8 by HPLC (High Performance Liquid Chromatography) using a reversed-phase column (C18).

[1] = HPLC, reversed-phase C18, mobile phase with formic acid
[2] = HCOOH, Table 4, compounds of formula I-A-Q4

SMILES | log P (HCOOH) (HCOOH) | other results
COc1ccc(CNC(=O)c2ccc(-n3nc(C(F)(F)F)c(-c4cc(Cl)cc(Cl)c4)c3N)cc2C)nc1 [I-A-Q2-032] | I-A-Q2-032: log P (HCOOH): 3.63 | –
N#Cc1cc(-n2nc(C(F)F)c(-c3ccc(F)cc3F)c2N)ccc1-n1cncn1 [I-A-Q1-048] | – | log P (HCOOH) [1]: I-A-Q1-048: log P (HCOOH): 2.39
CNC(=O)c1ccc(-n2nc(C(F)(F)F)c(-c3cc(Cl)cc(Cl)c3)c2Br)nc1 [I-A-Q2-109] | I-A-Q2-109: log P (HCOOH): 4.35 | –
Nc1c(-c2ccc(Cl)c(F)c2)c(C(F)(F)F)nn1-c1ccc(Cl)cn1 [I-A-Q4-048] | – | log P (HCOOH) [2]: I-A-Q4-048: log P (HCOOH): 5.02
Cc1nn(-c2ccc(-n3cncn3)c(C#N)c2)c(N)c1-c1ccc(Cl)cc1 [I-A-Q1-029] | – | log P (HCOOH) [1]: I-A-Q1-029: log P (HCOOH): 2.65
Cc1nn(-c2ccc(-n3cncn3)c(C#N)c2)c(N)c1-c1cc(F)ccc1F [I-A-Q1-061] | – | log P (HCOOH) [1]: I-A-Q1-061: log P (HCOOH): 2.29
CC(NC(=O)c1ccc(-n2nc(C(F)(F)F)c(-c3cc(Cl)cc(C(F)(F)F)c3)c2N)cc1)C(F)(F)F (stereo not drawn) [I-A-Q2-095] | I-A-Q2-095: log P (HCOOH): 4.51 | –
CCOC(=O)c1ccc(-n2nc(C(F)(F)F)c(Cl)c2N)cc1 [XI-A-042] | XI-A-042: log P (HCOOH): 3.52 | –
CSc1c(-c2cc(Cl)cc(Cl)c2)c(C(F)(F)F)nn1-c1ccc(C(=O)NCC(F)(F)C(F)F)c(C)c1 [I-A-Q2-282] | I-A-Q2-282: log P (HCOOH): 5.25 | –
N#Cc1cc(-n2nc(C(F)(F)F)c(-c3cc(Cl)cc(Cl)c3)c2N)ccc1-n1ccnc1C#N [I-A-Q1-077] | – | log P (HCOOH) [1]: I-A-Q1-077: log P (HCOOH): 4.05
COc1cccc(C(F)(F)c2nn(-c3ccc(C(=O)NCC(F)(F)C(F)F)c(C)c3)c(N)c2-c2cc(Cl)cc(C(F)(F)F)c2)c1 [I-A-Q2-288] | I-A-Q2-288: log P (HCOOH): 4.40 | –
Cc1cc(-n2nc(C(F)(F)F)c(-c3cc(Cl)cc(Cl)c3)c2N)ccc1C(=O)N(C)CC(F)(F)C(F)F [I-A-Q2-033] | I-A-Q2-033: log P (HCOOH): 4.51 | –
N#Cc1cc(-n2nc(C3CC3)c(-c3ccc(Cl)cc3)c2N)ccc1-n1cncn1 [I-A-Q1-064] | – | log P (HCOOH) [1]: I-A-Q1-064: log P (HCOOH): 3.31
CC(C)Cc1nn(-c2ccc(Cl)cn2)c(N)c1-c1ccc(Cl)cc1 [I-A-Q4-062] | – | log P (HCOOH) [2]: I-A-Q4-062: log P (HCOOH): 5.97
N#Cc1cc(-n2nc(C(F)(F)F)c(-c3ccc(Br)cc3)c2N)ccc1-n1cncn1 [I-A-Q1-040] | – | log P (HCOOH) [1]: I-A-Q1-040: log P (HCOOH): 3.44
Nc1c(-c2cc(F)c(F)c(F)c2)c(C(F)(F)F)nn1-c1ccc(Cl)cn1 [I-A-Q4-053] | – | log P (HCOOH) [2]: I-A-Q4-053: log P (HCOOH): 4.89
Cc1cc(-n2nc(C(F)(F)F)c(-c3cc(Cl)cc(Cl)c3)c2N)ccc1C(=O)NCc1ncccn1 [I-A-Q2-018] | I-A-Q2-018: log P (HCOOH): 3.56 | –
Cc1cc(-n2nc(C(F)(F)F)c(-c3cc(Cl)cc(Cl)c3)c2N)ccc1C(=O)NC1CCS(=O)(=O)C1 (stereo not drawn) [I-A-Q2-218] | I-A-Q2-218: log P (HCOOH): 3.33 | –
N#Cc1cc(-n2nc(C(F)(F)F)c(-c3c(F)cc(F)cc3F)c2N)ccc1-n1cncn1 [I-A-Q1-034] | – | log P (HCOOH) [1]: I-A-Q1-034: log P (HCOOH): 3.10
Cc1cc(-n2nc(C(F)(F)F)c(-c3cc(Cl)cc(Cl)c3)c2N)ccc1C(=O)NC(CC(F)(F)F)C(F)(F)F (stereo not drawn) [I-A-Q2-217] | I-A-Q2-217: log P (HCOOH): 4.70 | –

SMILES | log P (HCOOH) (HCOOH) | other results
Cc1cc(-n2nc(C)c(-c3ccc(Cl)cc3)c2N)ccc1C(=O)NCc1ccccn1 [I-A-Q2-366] | I-A-Q2-366: log P (HCOOH): 1.91 | –
Cc1cc(-n2nc(C(F)(F)F)c(-c3ccc(F)c(F)c3)c2N)ccc1C(=O)NCC(F)(F)C(F)F [I-A-Q2-312] | I-A-Q2-312: log P (HCOOH): 3.42 | –
CC(NC(=O)c1ccc(-n2nc(C(F)(F)F)c(-c3cc(Cl)cc(Cl)c3)c2N)nc1)C(F)(F)F (stereo not drawn) [I-A-Q2-100] | I-A-Q2-100: log P (HCOOH): 4.96 | –
Nc1c(-c2cc(Cl)cc(Cl)c2)c(C(F)(F)F)nn1-c1ccc(C(=O)NCc2ncccn2)cn1 [I-A-Q2-108] | I-A-Q2-108: log P (HCOOH): 3.80 | –
Cc1cc(-n2nc(C(F)(F)Cl)c(-c3cc(Cl)cc(C(F)(F)F)c3)c2N)ccc1C(=O)NCc1ccccn1 [I-A-Q2-364] | I-A-Q2-364: log P (HCOOH): 3.53 | –
Cc1nn(-c2ccc(Cl)cn2)c(N)c1-c1ccc(F)cc1Cl [I-A-Q4-037] | – | log P (HCOOH) [2]: I-A-Q4-037: log P (HCOOH): 4.05
CC(NC(=O)c1ccc(-n2nc(C(F)(F)F)c(-c3cc(F)cc(Cl)c3)c2N)cc1)c1ccccc1 (stereo not drawn) [I-A-Q2-090] | I-A-Q2-090: log P (HCOOH): 4.11 | –
Nc1c(-c2cc(Cl)cc(Cl)c2)c(C(F)(F)F)nn1-c1ccc(C(=O)O)c(C(F)(F)F)c1 [I-A-Q4-115] | – | log P (HCOOH) [2]: I-A-Q4-115: log P (HCOOH): 4.22
Cc1cc(-n2nc(C(F)(F)F)c(-c3cccc(Br)c3)c2N)ccc1C(=O)NCC1CC1 [I-A-Q2-416] | I-A-Q2-416: log P (HCOOH): 3.81 | –
Cc1cc(-n2nc(C(F)(F)F)c(-c3cc(Cl)cc(Cl)c3)c2N)ccc1C(=O)NC1CCCCC1C(F)(F)F (stereo not drawn) [I-A-Q2-274] | I-A-Q2-274: log P (HCOOH): 4.95 | –
Cc1cc(-n2nc(C(F)(F)F)c(-c3cc(Cl)cc(Cl)c3)c2N)ccc1C(=O)NCC(F)(F)C(F)(F)C(F)(F)C(F)(F)C(F)(F)C(F)(F)C(F)(F)F [I-A-Q2-267] | I-A-Q2-267: log P (HCOOH): 6.14 | –
Cc1cc(-n2nc(C(F)(F)F)c(-c3cc(Cl)cc(Cl)c3)c2N)ccc1C(=O)NC(C)C [I-A-Q2-229] | I-A-Q2-229: log P (HCOOH): 4.05 | –
COc1cnn(-c2ccc(-n3nc(C(F)(F)F)c(-c4cc(Cl)cc(Cl)c4)c3N)cc2C#N)c1 [I-A-Q1-085] | – | log P (HCOOH) [1]: I-A-Q1-085: log P (HCOOH): 4.45
Cc1nn(-c2ccc(-n3cncn3)c(C#N)c2)c(N)c1-c1cccc(Cl)c1 [I-A-Q1-053] | – | log P (HCOOH) [1]: I-A-Q1-053: log P (HCOOH): 2.66
Cc1cc(-n2nc(C(F)(F)F)c(-c3cc(Cl)cc(Cl)c3)c2N)ccc1C(=O)NCc1cccc(F)c1 [I-A-Q2-214] | I-A-Q2-214: log P (HCOOH): 4.45 | –
Cc1cc(-n2nc(C)c(-c3c(F)cccc3Cl)c2N)ccc1C(=O)NCc1ccccn1 [I-A-Q2-374] | I-A-Q2-374: log P (HCOOH): 1.66 | –
Nc1c(-c2ccc(Cl)cc2Cl)c(C(F)(F)F)nn1-c1ccc(C(=O)O)cc1 [I-A-Q4-095] | – | log P (HCOOH) [2]: I-A-Q4-095: log P (HCOOH): 3.44
Cc1cc(-n2nc(C(F)(F)F)c(-c3ccc(Cl)cc3Cl)c2N)ccc1C(=O)NCC1CC1 [I-A-Q2-410] | I-A-Q2-410: log P (HCOOH): 3.94 | –
CC(NC(=O)c1ccc(-n2nc(C(F)(F)F)c(-c3ccc(F)c(F)c3)c2N)cc1)C(F)(F)F (stereo not drawn) [I-A-Q2-175] | I-A-Q2-175: log P (HCOOH): 3.47 | –
CSc1cc(-n2nc(C(C)(C)C)c(-c3cc(Cl)cc(Cl)c3)c2N)ccc1C(=O)NCc1ccccn1 [I-A-Q2-408] | I-A-Q2-408: log P (HCOOH): 3.68 | –

SMILES | log P (HCOOH) (HCOOH) | other results
Cc1nc(C(F)(F)F)nn1-c1ccc(-n2nc(C(F)(F)F)c(-c3cc(Cl)cc(Cl)c3)c2N)cc1C#N [I-A-Q1-086] | – | log P (HCOOH) [1]: I-A-Q1-086: log P (HCOOH): 4.57
Cc1cc(-n2nc(-c3ccccc3)c(-c3ccc(Cl)cc3)c2N)ccc1C(=O)NCC(F)(F)C(F)F [I-A-Q2-337] | I-A-Q2-337: log P (HCOOH): 3.80 | –
N#Cc1cc(-n2nc(C(F)(F)F)c(-c3cc(Cl)cc(Cl)c3)c2N)ccc1I [I-A-Q4-102] | – | log P (HCOOH) [2]: I-A-Q4-102: log P (HCOOH): 5.94
Nc1c(-c2cc(Cl)cc(Cl)c2)c(C(F)(F)F)nn1-c1ccc(C(=O)NCC(F)(F)C(F)F)c(Cl)c1 [I-A-Q2-384] | I-A-Q2-384: log P (HCOOH): 4.53 | –
Cc1nn(-c2ccc(-n3cncn3)c(C#N)c2)c(N)c1-c1cc(Cl)ccc1Cl [I-A-Q1-028] | – | log P (HCOOH) [1]: I-A-Q1-028: log P (HCOOH): 2.65
Nc1c(-c2cc(Cl)cc(Cl)c2)c(C(F)(F)F)nn1-c1ccc(-n2cncn2)c(Cl)c1 [I-A-Q1-069] | – | log P (HCOOH) [1]: I-A-Q1-069: log P (HCOOH): 4.14
COc1cc(-c2c(C(F)(F)F)nn(-c3ccc(C(=O)NCC(F)(F)C(F)F)c(C)c3)c2N)cc(Cl)c1OC [I-A-Q2-292] | I-A-Q2-292: log P (HCOOH): 3.53 | –
Cc1cc(-n2nc(C(F)(F)F)c(-c3ccc(I)cc3)c2N)ccc1C(=O)NCc1ccccn1 [I-A-Q2-356] | I-A-Q2-356: log P (HCOOH): 2.93 | –
N#Cc1cc(N)ccc1-n1cncn1 [5-Amino-2-[1,2,4]triazol-1-ylbenzonitrile] | – | chromatographic logP (HPLC, reversed-phase C18, mobile phase with formic acid, read-out: log P (HCOOH)): 1.01
Nc1c(-c2ccc(F)cc2F)c(C(F)F)nn1-c1ccc(Cl)cn1 [I-A-Q4-056] | – | log P (HCOOH) [2]: I-A-Q4-056: log P (HCOOH): 3.84
CCOC(=O)N1CCC(NC(=O)c2ccc(-n3nc(C(F)(F)F)c(-c4cc(Cl)cc(Cl)c4)c3N)cc2C)CC1 [I-A-Q2-204] | I-A-Q2-204: log P (HCOOH): 4.22 | –
CS(=O)(=O)c1cc(-n2nc(C(F)(F)F)c(-c3cc(Cl)cc(Cl)c3)c2N)ccc1C(=O)NCc1ccccn1 [I-A-Q2-425] | I-A-Q2-425: log P (HCOOH): 2.99 | –
Cc1cc(-n2nc(C(F)(F)F)c(-c3ccc(F)c(Cl)c3)c2N)ccc1C(=O)NCc1ccccn1 [I-A-Q2-352] | I-A-Q2-352: log P (HCOOH): 2.76 | –
N#Cc1cc(-n2nc(C(F)(F)F)c(-c3ccc(I)cc3)c2N)ccc1-n1cncn1 [I-A-Q1-043] | – | log P (HCOOH) [1]: I-A-Q1-043: log P (HCOOH): 3.61
N#Cc1cc(-n2nc(C(F)(F)F)c(-c3cc(C(F)(F)F)cc(C(F)(F)F)c3)c2N)ccc1-n1cncn1 [I-A-Q1-027] | – | log P (HCOOH) [1]: I-A-Q1-027: log P (HCOOH): 4.07
CCC(C)C(NC(=O)c1ccc(-n2nc(C(F)(F)F)c(-c3cc(Cl)cc(Cl)c3)c2N)cc1)C(F)(F)F (stereo not drawn) [I-A-Q2-072] | I-A-Q2-072: log P (HCOOH): 5.22 | –
Cc1cc(-n2nc(C(F)(F)F)c(-c3cccc(Br)c3)c2N)ccc1C(=O)NC(C)c1ccccn1 (stereo not drawn) [I-A-Q2-418] | I-A-Q2-418: log P (HCOOH): 3.22 | –
Cc1cc(-n2nc(C(F)(F)F)c(-c3cc(Cl)cc(Cl)c3)c2N)ccc1C(=O)NCc1cccc(N2CCOCC2)n1 [I-A-Q2-280] | I-A-Q2-280: log P (HCOOH): 3.96 | –
CCC(NC(=O)c1ccc(-n2nc(C(F)(F)F)c(-c3cc(Cl)cc(Cl)c3)c2N)cc1)C(F)(F)F (stereo not drawn) [I-A-Q2-067] | I-A-Q2-067: log P (HCOOH): 4.65 | –
Cc1cc(-n2nc(C(F)(F)F)c(-c3cc(Cl)cc(Cl)c3)c2[S+](C)[O-])ccc1C(=O)NCC(F)(F)C(F)F (single isomer, unassigned) [I-A-Q2-283] | I-A-Q2-283: log P (HCOOH): 4.12 | –
